Reference: paper PMC9732821, “Neurotrophic Activity and Its Modulation by Zinc Ion of a Dimeric Peptide Mimicking the Brain-Derived Neurotrophic Factor N-Terminal Region” (ACS Chemical Neuroscience, 2022)

Assays:
[1] = system: human neural progenitor cell line (RenVM); experiment: neuronal differentiation of Ren cells (β3-tubulin positive fraction); format: cell-based; conditions: 1 μM d-bdnf, four days; BDNF 50 ng/mL comparator
Procedure: Figure 3 Neurite outgrowth stimulated by BDNF and its mimetic peptide ligands. (A) Top, left: schematic timeline of the experiment. SH-SY5Y cells were differentiated for 5 days (d1–5) by addition of retinoic acid (RA, gray bar) in the cell medium. Then, cells were stimulated for 3 days (d6–8) with 150 ng/mL BDNF or different concentrations of its peptide-mimetics (black bar) or left untreated (white bar). On the right and bottom, representative images of the differentiated cells at the end of each treatment. Scale bar 50 μm. (B) Scatter dot plot of the total neurite length, normalized to the number of cell bodies present in each analyzed field. […] For each field, an average of 50–200 cells were counted. […] (C) Representative fluorescence images of DIV3 Ren cells stained with DAPI (blue) and β3-tubulin (green) after differentiation with the standard medium (CTRL), or with the standard medium supplemented with 50 ng/mL BDNF or with 1 μM d-bdnf. […] (D) Column plot of the mean ± SD fraction of β3-tubulin (green) positive on the total cells, counted in the DAPI channel of the analyzed fields (nfields) (CTRL: nfields = 10 and total ncells = 4756; BDNF: nfields = 11 and total ncells = 4330; d-bdnf: nfields = 10 and total ncells = 5619 cells; ****p < 0.0001, *p < 0.05 according to the one-way ANOVA with Dunnett’s multiple comparison test). […]

[2] = far-UV CD spectra and Zn^2+ titration; format: physicochemical; conditions: water, 298 K, pH 7.4, wide minimum around 200 nm
Procedure: Figure 5 Evaluation of Zn^2+ ion binding on d-bdnf. (A,B) Deconvoluted ESI mass spectra of 10^–6 M d-bdnf solutions incubated in water 2 h, 37 °C in the presence of a 100-fold excess of Zn^2+. 0.1% of formic acid was added (A) or not (B) just before the infusion. (C) Far-UV CD spectra at pH 7.4 for titration with Zn^2+ of d-bdnf (the black curve is the spectrum of peptide; red, green, blue, cyano, and gray are spectra of peptide after the addition of increasing equivalents of metal ions. (D) Spectral changes as a function of zinc addition monitored at λ = 222 nm. [d-bdnf] = 1 × 10^–5 M. (E) Most representative conformation for the BDNF(1–12) dimer coordinating Zn(II) metal ion. Carbon atoms are shown in silver, nitrogen atoms are reported in blue, oxygen atoms in red, sulfur atoms are represented in yellow, and Zn atom is reported in orange. The secondary structure of the peptide is represented in green.
Far-UV CD spectra were obtained at 298 K under a constant flow of nitrogen by using a Jasco model 810 spectropolarimeter. […]
Potentiometric titrations were carried out on a Titrando 905 automatic, using a combined glass-Ag/AgCl electrode (Metrohm, Switzerland). […] To avoid systematic errors and verify reproducibility, the EMF values of each experiment were recorded at different time intervals. The data were analyzed by using HYPERQUAD 2003 program 17. […]

HSDPARRGELSVC-C-VSLEGRRAPDSH (disulfide) [d-bdnf]
neuronal cell fraction (β3-tubulin positive) [1]: significant increase of detected neurons with respect to untreated cells, in a similar way to BDNF | conformation by far-UV CD [2]: predominantly a random coil conformation
